Patent US10730839B2, “Quinolines as cytoprotective agents” (priority 2016, dated 2020)

Experiments:
[1] = system: CSM14.1 neuronal cells; experiment: Cell survival assay (thapsigargin-treated cells, CELLTITER-GLO luminescence); assay type: cell-based; details: compound 2 hrs before about 15 μM thapsigargin, overnight
Experimental: CSM14.1 neuronal cells were maintained in Complete Medium at 32° C.; wherein the Complete Medium contained Dulbecco's modified eagle medium (DMEM) with 10% fetal bovine serum (FSB), 1% L-glutamine, 100 IU/mL penicillin, and 100 μg/mL streptomycin. The cells were recovered from cultures by trypsinization and then seeded in 384 well plates (Greiner #781098) at a concentration of 1,000 cells/well in 20 μL of DMEM Assay Medium, wherein the DMEM Assay Medium contained 2% FBS, 100 IU/mL penicillin, and 100 μg/mL streptomycin. Seeding was performed using a MultiDrop Combi reagent broadcaster. The plates were incubated overnight at 32° C. A test compound was prepared by 2-fold serial dilution in 100% DMSO using a BIOMEK® 2000 liquid handler (Beckman Coulter). A dose-response curve containing 10 concentrations of the test compound was obtained. Using a BIOMEK® FX liquid handler (Beckman Coulter), 2.5 μL of the test compound was transferred from the 100% DMSO serial dilution plate to an intermediate plate containing 47.5 μL of DMEM Assay Medium containing 2% FBS, 100 IU/mL penicillin, and 100 μg/mL streptomycin and mixed. To reduce or eliminate the interference from the compound's precipitation, 6 μL of the diluted compound was immediately transferred to the assay plate to achieve a high compound concentration of 100 μM in 99% DMEM Assay Medium and 1% DMSO. After the assay plates were incubated for 2 hrs, 4 μL of 112.5 μM thapsigargin (TG) (DMSO stock diluted into Assay TC Medium) was dispensed into each testing well with a MultiDrop Combi reagent broadcaster for a final concentration of about 15 μM TG. The tissue culture media (4 μL) containing vehicle only was transferred manually to each control cell using a 16 channel electronic pipette. After the plates were incubated overnight (about 16 to 24 hrs), CELLTITER-GLO® (Promega) (16 μL) was added to all wells and luminescence was measured. High luminescence indicates cell survival. The biological results are summarized in Table 1 where A represents a cell viability EC50 less than 1 μM and B represents a value greater than 1 μM and less than 10 μM and C represents a value equal to or greater than 10 μM and less than 20 μM.

[2] = system: HEK293 cells; N2a cells; experiment: Cell rescue assay: protection against thapsigargin (TG)-induced cell-death (ALAMARBLUE); assay type: cell-based, Human; Mouse; details: Homo sapiens; compound 20 μM, 2 hrs before thapsigargin (15 μM HEK293, 1 μM N2a), 24 hrs; viability as % RFU compared to control; read-out: Cell Survival %
Experimental: Protection against Thapsigargin (TG)-induced Cell-death. Human embryonic kidney (HEK293) cells were grown in Dulbecco's Modified Eagle's Medium (DMEM) with 10% FBS and 1% antibiotic antimycotic solution (ABAM). Mouse neuroblastoma (N2a) cells were grown in 1:1 DMEM:OPTI-MEM® with 5% FBS and 1% ABAM. All cells were grown in 10% CO2 in a humidified environment of the incubator. Cells grown in 96-well plates were exposed to a test compound (20 μM) for 2 hrs before addition of thapsigargin (15 μM for HEK293 cells and 1 μM for N2a cells) to induce ER stress. After incubation in cell-culture incubator for 24 hrs, ALAMARBLUE® regent (10% v/v) was added to the wells. Fluorescence reading was taken 2 hrs after the addition of the ALAMARBLUE® regent. Cell-viability was calculated as a percentage of relative fluorescence unit (RFU) compared to control. […] The biological results are summarized in Table 2, where each compound was tested at 20 μM and where A represents a viability greater than 50%, B represents a viability greater than 10% and less than 50%, C represents a value at or below 10%.

[3] = system: SH-SY5Y cells; experiment: Cell rescue assay: protection against ß-amyloid-induced cell toxicity; assay type: cell-based; details: Homo sapiens, 96 h, 7.5 uM compound, AB 1-42 at 10 uM, 4 days, OD at 490 nm, read-out: Cell Survival % (cell rescue)
Experimental: Protection against ß-amyloid-induced cell toxicity. Chonpathompikunlert et al. Eu. J. Pharmacol. 2011, 650, 544-549. Human SH-SY5Y cells are suspended in media containing 2% FBS and 2× Gentamicin. Transfer 100 ul/well culture to 96-well plate (20,000 cells/well; passage #5) and incubate overnight. Prepare compound samples at 30 uM. Add 50 ul of the samples to the cells [[…]] and incubate 3 hours. Make stock of 40 uM AB 1-42 peptide in assay media. Transfer 50 ul/well to cells/compounds in assay plate. The final assay volume is 200 ul/well, containing 2% FBS, 2× Gentamicin, 7.5 uM compound and AB 1-42 at 10 uM. Incubate for 4 days then add 20 ul of Promega Substrate Cell Titer 96 Aqueous One Solution Reagent to each well. Incubate 37 OC and read OD at 490 nm. The results are summarized in Table 3, where A represents a value equal to or greater than 50% cell rescue, B represents a value greater than 10% and less than 50% cell rescue, and C represents a value greater than 1% and less than or equal to 10% cell rescue.

[4] = target: T1, SERCA (Homo sapiens, UniProt P16615); experiment: Ca-ATPase assay (NADH-linked, enzyme-coupled ATPase assay); assay type: biochemical; details: microsomal preparations from HEK 293 cells, Vmax from Hill fit of ATPase calcium-dependence, relative to controls
T1 construct: microsomal preparations from HEK 293 cells; endogenous in cells; host or cells: HEK 293 cells (microsomal preparation)
Experimental: A Ca-ATPase assay was performed using microsomal preparations from HEK 293 cells at a series of calcium concentrations corresponding to the physiological range, relative to controls. The ATP hydrolysis rate was measured over a range of calcium concentrations in the presence of test compounds using an NADH-linked, enzyme-coupled ATPase assay adapted for 96-well microplates, with Vmax determined by fitting the ATPase calcium-dependence to the Hill function. Each well contained 2 μg or 7 μg of SR vesicles (optimized for skeletal or cardiac SR, respectively), 50 mM MOPS (pH 7.0), 100 mM KCl, 5 mM MgCl2, 1 mM EGTA, 0.2 mM NADH, 1 mM phosphoenol pyruvate, 5 IU pyruvate kinase, 5 IU lactate dehydrogenase, and 3.5 μg/mL A23187 (a calcium ionophore). CaCl2 was added to set free [Ca^2+] to the specific values. The assay was started upon addition of ATP at a final concentration of 5 mM, and read in a SpectraMax Plus microplate spectrophotometer. The results are summarized in Table 4, where A represents an increase in SERCA Vmax greater than or equal to 50% and B represents a value greater than 10% and less than 50%.

[5] = system: Ob/ob mice; experiment: Effect of a SERCA agonist on the level of blood glucose; assay type: in vivo; details: Mus musculus, ip, 96 h, 50 mg/kg i.p. once a day for 5 days, fasting glucose at baseline and 4 days after administration, read-out: Glucose level reduction
Experimental: Ob/ob mice (10 weeks old, n=7) were intraperitoneally (i.p.) injected with 100 μL of a solution containing 0 (vehicle) or 50 mg/kg of a test compound once a day for a total of 5 days. Fasting glucose was measured at baseline and 4 days after the administration of the test compound. Glucose levels were measured in blood samples drawn from the tail vein using a handheld glucose sensor. Compound effects on blood glucose are shown in Table 5 where A represents a 10-20% reduction in blood glucose, B represents a 21-30% reduction in blood glucose, and C represents a greater than 30% reduction in blood glucose levels.

T1 sequence (P16615 whole entry): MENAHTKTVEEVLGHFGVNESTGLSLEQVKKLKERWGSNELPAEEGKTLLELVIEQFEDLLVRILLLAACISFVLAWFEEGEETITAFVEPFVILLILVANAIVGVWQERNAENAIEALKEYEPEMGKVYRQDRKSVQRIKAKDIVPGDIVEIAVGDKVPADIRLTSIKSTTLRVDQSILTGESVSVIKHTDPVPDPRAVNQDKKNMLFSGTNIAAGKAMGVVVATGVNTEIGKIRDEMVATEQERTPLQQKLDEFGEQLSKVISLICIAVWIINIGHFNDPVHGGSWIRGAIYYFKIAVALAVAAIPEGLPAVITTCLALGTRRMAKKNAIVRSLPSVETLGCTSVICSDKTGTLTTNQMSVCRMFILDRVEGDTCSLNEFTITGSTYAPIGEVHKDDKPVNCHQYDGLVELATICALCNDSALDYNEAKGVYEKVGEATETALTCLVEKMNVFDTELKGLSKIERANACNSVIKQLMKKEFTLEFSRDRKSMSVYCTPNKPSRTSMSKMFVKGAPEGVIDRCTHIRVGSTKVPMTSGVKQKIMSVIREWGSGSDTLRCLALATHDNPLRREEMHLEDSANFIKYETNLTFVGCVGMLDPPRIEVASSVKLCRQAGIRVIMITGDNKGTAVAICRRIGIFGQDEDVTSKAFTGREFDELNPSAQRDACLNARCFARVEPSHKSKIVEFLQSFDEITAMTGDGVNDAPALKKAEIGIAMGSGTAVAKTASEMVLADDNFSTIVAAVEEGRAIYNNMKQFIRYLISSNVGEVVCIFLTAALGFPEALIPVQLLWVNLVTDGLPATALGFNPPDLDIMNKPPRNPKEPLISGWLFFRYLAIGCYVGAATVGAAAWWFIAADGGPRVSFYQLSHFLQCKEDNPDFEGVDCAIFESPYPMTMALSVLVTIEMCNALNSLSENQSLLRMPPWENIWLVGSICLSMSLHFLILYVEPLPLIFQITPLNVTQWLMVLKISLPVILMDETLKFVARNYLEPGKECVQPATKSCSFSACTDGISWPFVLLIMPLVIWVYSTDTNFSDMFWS

Structure (SMILES) | EC50 [1] | viability at 20 µM [2] | viability at 7.5 µM [3] | SERCA Vmax Increase [4] | inhibition in vivo at 50 mg/kg [5]
Cc1ccc2cccc(C(=O)Nc3cccc(F)c3)c2n1 [A3, N-(3-Fluorophenyl)-2-methylquinoline-8-carboxamide] | 10 to 20 µM | 10 to 50% | 10 to 50% | B (a value greater than 10% and less than 50%) | 10 to 20%
Cc1ccc2cccc(C(=O)Nc3ccc(N(C)C)cc3)c2n1 [A4, N-(4-(Dimethylamino)phenyl)-2-methylquinoline-8-carboxamide] | < 1 µM | 10 to 50% | 10 to 50% | A (an increase in SERCA Vmax greater than or equal to 50%) | 21 to 30%
Cc1ccc(NC(=O)c2cccc3ccc(C)nc23)cc1 [A5, N-(4-Methylphenyl)-2-methylquinoline-8-carboxamide] | 1 to 10 µM | > 50% | ≥ 50% | B (a value greater than 10% and less than 50%) | 21 to 30%
Cc1ccc2cccc(C(=O)Nc3ccc(C4CC4)s3)c2n1 [B5, N-(5-Cyclopropylthiophen-2-yl)-2-methylquinoline-8-carboxamide] | 1 to 10 µM | ≤ 10% | 1 to 10% | A (an increase in SERCA Vmax greater than or equal to 50%) | 10 to 20%
Cc1ccc2cccc(C(=O)Nc3ccc(C)s3)c2n1 [B3, 2-Methyl-N-(5-methylthiophen-2-yl)quinoline-8-carboxamide] | 1 to 10 µM | ≤ 10% | 1 to 10% | B (a value greater than 10% and less than 50%) | 10 to 20%
Cc1ccc2cccc(C(=O)Nc3ccc(Br)s3)c2n1 [B2, N-(5-Bromothiophen-2-yl)-2-methylquinoline-8-carboxamide] | 1 to 10 µM | > 50% | 10 to 50% | A (an increase in SERCA Vmax greater than or equal to 50%) | 21 to 30%
Cc1ccc2cccc(C(=O)Nc3cccs3)c2n1 [B4, 2-Methyl-N-(thiophen-2-yl)quinoline-8-carboxamide] | 1 to 10 µM | > 50% | ≥ 50% | B (a value greater than 10% and less than 50%) | > 30%
Cc1ccc2cccc(C(=O)Nc3ccc(Cl)cc3)c2n1 [A2, N-(4-Chlorophenyl)-2-methylquinoline-8-carboxamide] | 1 to 10 µM | > 50% | ≥ 50% | B (a value greater than 10% and less than 50%) | > 30%
Cc1ccc2cccc(C(=O)Nc3ccc(OC(C)C)cc3)c2n1 [A1, N-(4-Isopropoxyphenyl)-2-methylquinoline-8-carboxamide] | 1 to 10 µM | > 50% | 10 to 50% | A (an increase in SERCA Vmax greater than or equal to 50%) | > 30%
Cc1ccc2cccc(C(=O)Nc3cc(Br)cs3)c2n1 [B1, N-(4-Bromothiophen-2-yl)-2-methylquinoline-8-carboxamide] | 1 to 10 µM | > 50% | 10 to 50% | A (an increase in SERCA Vmax greater than or equal to 50%) | > 30%
